# Assays:
# BACE1 [1] = molecular target: T1, BACE1 (Homo sapiens, UniProt P56817); assay: In Vitro Enzymatic BACE FRET (Fluorescence Resonance Energy Transfer) Assay; assay type: biochemical; conditions: read-out: BACE1 FRET assay
# Procedure, shortened: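 Fluorescence read-out after Tris addition raises pH to neutrality and ends the reaction. Before that, a peptide substrate carrying fluorophore and quencher across the BACE cleavage site (50 nM) is incubated with enzyme for one hour at pH 4.2 in acetate containing 10% DMSO and sub-micellar genapol.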
# BACE1 [2] = molecular target: T1, BACE1; assay: In Vitro BACE Cell-based Assay (HEK cell assay): Aβ40 in conditioned medium of cells stably expressing Amyloid Precursor Protein, sandwich ELISA; conditions: read-out: HEK cell assay
# Procedure, shortened: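 Read-out is time-resolved fluorescence of Aβ40 in supernatant, captured by pAb40 and detected with biotinylated 6E10 plus Streptavidin-Europium. Cells stably expressing APP received compounds for 24 h over 10 concentrations starting at 100 μM or 10 μM, final DMSO 0.1%.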
# [3] = test system: amyloid beta peptide (A-beta) in cerebrospinal fluid and brain; assay: In Vivo Inhibition of Beta-Secretase: reduction of A-beta levels in CSF and brain; conditions: 30 mpk, after 4 hrs, mouse or rat
# From the text: Several animal models, including mouse, rat, dog, and monkey, may be used to screen for inhibition of beta-secretase activity in vivo following administration of a test compound sample. Animals used in this invention can be wild type, transgenic, or gene knockout animals. […] A separate group of animals receive 2% hydroxypropyl methylcellulose, 1% Tween80 alone, containing no test compound, and serve as a vehicle-control group. At the end of the test period, animals are sacrificed and brain tissues, plasma or cerebrospinal fluid are collected. […] Homogenates are centrifuged at 355,000 g, 4° C. for 30 minutes. CSF or brain supernatants are then analyzed for the presence of A-beta peptide by specific sandwich ELISA assays based on ECL (Electrochemiluminescence) technology. For example, rat Abeta40 is measured using biotinylated-4G8 (Signet) as a capture antibody and Fab40 (an in-house antibody specific to the C-terminal of Abeta40) as a detection antibody.
# T1 sequence (P56817 46-501, species assumed): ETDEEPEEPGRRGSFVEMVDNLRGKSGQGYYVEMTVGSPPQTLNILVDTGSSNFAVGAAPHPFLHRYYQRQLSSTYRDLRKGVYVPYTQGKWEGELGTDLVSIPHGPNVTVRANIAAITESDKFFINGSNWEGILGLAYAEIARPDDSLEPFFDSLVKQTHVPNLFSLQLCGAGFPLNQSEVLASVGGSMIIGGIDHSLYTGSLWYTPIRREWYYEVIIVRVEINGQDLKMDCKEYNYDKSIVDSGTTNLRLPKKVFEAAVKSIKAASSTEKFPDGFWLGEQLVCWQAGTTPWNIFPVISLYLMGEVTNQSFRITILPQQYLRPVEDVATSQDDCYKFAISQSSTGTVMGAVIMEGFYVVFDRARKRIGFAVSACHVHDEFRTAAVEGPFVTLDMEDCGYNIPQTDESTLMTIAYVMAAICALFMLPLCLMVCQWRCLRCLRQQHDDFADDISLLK
SMILES,"IC50 (BACE1 [1]; Table IV, class symbols)","IC50 (BACE1 [2]; Table IV, class symbols)",IC50 (BACE1 [1]),IC50 (BACE1 [2]),percent reduction in CSF A-beta levels [3],percent reduction in brain A-beta levels [3]
"C[C@@H]1CN(c2ccc3c(c2)[C@]2(COC(N)=N2)c2cc(-c4cccnc4)ccc2O3)C[C@H](C)O1 [Example 662, (4S)-2′-((2R,6S)-2,6-dimethyl-4-morpholinyl)-7′-(3-pyridinyl)spiro[1,3-oxazole-4,9′-xanthen]-2-amine]",< 100 nM,< 100 nM,–,–,53%,34%
"COC(C)(C)C#Cc1cc(F)c2c(c1)[C@]1(COC(N)=N1)c1cc(-c3cncnc3)ccc1O2 [Example 673, (4S)-4′-fluoro-2′-(3-methoxy-3-methyl-1-butyn-1-yl)-7′-(5-pyrimidinyl)spiro[1,3-oxazole-4,9′-xanthen]-2-amine]",–,–,< 100 nM,< 100 nM,81%,63%
"CC1(C)C=C(c2ccc3c(c2)[C@]2(COC(N)=N2)c2cc(-c4cncnc4)ccc2O3)CCO1 [Example 689, (4R)-2′-(6,6-dimethyl-3,6-dihydro-2H-pyran-4-yl)-7′-(5-pyrimidinyl)spiro[1,3-oxazole-4,9′-xanthen]-2-amine]",–,–,< 100 nM,< 100 nM,69%,41%
"NC1=N[C@]2(CO1)c1cc(C#CC3(O)CCC3)ccc1Oc1ccc(-c3cncnc3)cc12 [Example 956, 1-(((4R)-2-amino-7′-(5-pyrimidinyl)spiro[1,3-oxazole-4,9′-xanthen]-2′-yl)ethynyl)cyclobutanol]",–,–,< 100 nM,< 100 nM,25%,8%

# Now from value to compound, other results behind:
"IC50 (BACE1 [1]; Table IV, class symbols)","IC50 (BACE1 [2]; Table IV, class symbols)",IC50 (BACE1 [1]),IC50 (BACE1 [2]),SMILES,percent reduction in CSF A-beta levels [3],percent reduction in brain A-beta levels [3]
< 100 nM,< 100 nM,–,–,"CC1(C)CN(c2ccc3c(c2)[C@]2(COC(N)=N2)c2cc(-c4cccnc4)ccc2O3)CCO1 [Example 663, (4S)-2′-(2,2-dimethyl-4-morpholinyl)-7′-(3-pyridinyl)spiro[1,3-oxazole-4,9′-xanthen]-2-amine]",57%,44%
< 100 nM,< 100 nM,–,–,"CC(C)(C)COc1ccc2c(c1)[C@@]1(COC(N)=N1)c1cc(-c3ccncc3)cnc1O2 [Example 808, (5S)-7-(2,2-dimethylpropoxy)-3-(4-pyridinyl)spiro[chromeno[2,3-b]pyridine-5,4′-[1,3]oxazol]-2′-amine]",55%,43%
< 100 nM,< 100 nM,–,–,"CC(C)(C#N)COc1ccc2c(c1)[C@@]1(COC(N)=N1)c1cc(-c3ccccc3)cnc1O2 [Example 817, 3-(((5S)-2′-amino-3-phenylspiro[chromeno[2,3-b]pyridine-5,4′-[1,3]oxazol]-7-yl)oxy)-2,2-dimethylpropanenitrile]",44%,25%
